Laboratory results published in patent publication US11110080B2, “Small molecule inhibitors of bacterial efflux pumps and methods of using same” (The Regents of the University of Colorado, a body Corporate, priority 2017, dated 2021).
Entries after “also recorded” stand apart in the source; their conditions may differ. Like-named read-outs stand apart in the source and are kept apart here.

Key:
[1] = system: K. pneumoniae; assay: Nile Red export in MDR clinical isolate; format: cell-based, Klebsiella pneumoniae; details: after glucose addition
Excerpt: (§1) Six pathogens that cause the bulk of MDR nosocomial infections have been dubbed the ESKAPE pathogens: Enterococcus faecium, Staphylococcus aureus, Klebsiella pneumoniae, Acinetobacter baumannii, Pseudomonas aeruginosa, and Enterobacter species (56).
(§2) Referring to FIGS. 22A-22D: Defined strains obtained from BEI resources were examined for Nile Red retention after glucose addition in the presence of the indicated compound. *p<0.05; **p<0.01; ***p<0.001; ****p<0.0001 as determined by comparison to DMSO+glucose with a one-way ANOVA and Dunnett's multiple comparison post-test.
(§3) Nile Red assays were adapted from an established protocol. Briefly, overnight Salmonella cultures were grown in Mueller-Hinton cation-adjusted broth (Sigma), washed, and resuspended at an OD600 of 2.0. Cells were incubated in 10 μM Nile Red for 3 hours at 37° C. with aeration, then moved to room temperature for 1 hour. After pelleting at 2000× g, dye-loaded cells were aliquoted and combined with compound at the indicated concentrations. Two hundred microliters was loaded into 96-well black walled plates (Greiner) and read using a Varioskan Flash Multimode Reader with 540 nm excitation and 625 nm emission filters. We observed that during loading into plates (˜20 minutes), bacteria were able to efflux Nile Red even in the absence of glucose (FIG. 8A). […]

[2] = system: S.Tm efflux pumps; assay: Nile Red efflux assay; format: cell-based, Salmonella enterica serovar Typhimurium; details: for glucose-activated efflux of Nile Red: 100 μM; for Nile Red efflux after washout of compound: 15 minutes with compound, washed, then glucose; for Nile Red fluorescence in the absence of glucose (basal loss): no glucose
Excerpt: Because Hoechst and other dyes commonly used to assess efflux bind cellular components, direct measurement of efflux is not possible using these methods; instead, the Hoechst assay measures dye accumulation, the net result of entry and efflux. Further, the slow off-rate of Hoechst entails that efflux pumps have no effect on dye already bound to DNA. As a result, compounds which increase Hoechst accumulation may actually enhance dye entry by altering porins or disrupting the membrane. To more specifically measure efflux pump activity, a second technique was employed using the dye Nile Red, a lipophilic membrane-partitioning dye which fluoresces in nonpolar environments. Because Nile Red is not known to bind cellular components, to directly observe efflux cells were preloaded with the dye in the absence of glucose to reduce efflux pump activity (FIG. 7A). Upon addition of glucose, bacteria rapidly effluxed Nile Red and fluorescence returned to baseline levels (FIG. 7B, top panel). […] The initial measured fluorescence was lower for DMSO-treated cells (upper dotted line) than for PAβN-treated cells due to glucose-independent efflux during sample preparation (FIG. 8A). Next, it was determined whether efflux pump activity is restored after removal of PAβN. Bacteria were incubated with compound for 15 minutes, pelleted and resuspended in buffer lacking compound, and then stimulated with glucose (FIGS. 7C, 7E).
Nile Red assays were adapted from an established protocol. Briefly, overnight Salmonella cultures were grown in Mueller-Hinton cation-adjusted broth (Sigma), washed, and resuspended at an OD600 of 2.0. Cells were incubated in 10 μM Nile Red for 3 hours at 37° C. with aeration, then moved to room temperature for 1 hour. After pelleting at 2000× g, dye-loaded cells were aliquoted and combined with compound at the indicated concentrations. Two hundred microliters was loaded into 96-well black walled plates (Greiner) and read using a Varioskan Flash Multimode Reader with 540 nm excitation and 625 nm emission filters. We observed that during loading into plates (˜20 minutes), bacteria were able to efflux Nile Red even in the absence of glucose (FIG. 8A). To activate efflux, glucose was added to a final concentration of 2 mM. In some experiments, bacteria were treated with drug for 15 minutes, pelleted at 16,000×g, resuspended in fresh buffer, and stimulated with 2 mM glucose. All wash and incubation steps were performed in PBS with 1 mM MgCl2; incubations were performed in glass tubes to reduce adhesion of Nile Red.

[3] = system: E. coli; assay: Nile Red export in E. coli; format: cell-based; details: after glucose addition
Excerpt: as §1, §2, §3

[4] = system: S.Tm efflux pumps; assay: Hoechst 33342 accumulation assay; format: cell-based, Salmonella enterica serovar Typhimurium
Experimental: Efflux pumps (EPs) represent a key pathogen virulence strategy to protect against host antimicrobials as well as therapeutic antibiotics. […] To uncover putative EPMs within our collection of hits, 58 repurchased compounds were screened in a Hoechst accumulation assay. Bacteria were incubated with Hoechst 33342, a dye which fluoresces when bound to DNA.
Hoechst accumulation assays were performed essentially as described in the literature. Briefly, overnight Salmonella cultures were washed 3 times in PBS and diluted to an OD of 0.1 in PBS with 2.5 μM Hoechst 33342 in the presence of the indicated concentrations of compounds. Fluorescence was monitored on a Biotek Synergy 2 with a 360/40 nm excitation filter and 460/40 nm emission filter. The maximum Hoechst fluorescence over 60 minutes of incubation was normalized to the signal from the equivalent number of heat-killed bacteria, after subtraction of autofluroescent signal determined from compound incubated in the absence of bacteria. Curve fitting to determine EC50s was performed using GraphPad Prism.

[5] = system: S.Tm; assay: Swimming assay in soft agar (proton motive force); format: cell-based, Salmonella enterica serovar Typhimurium; details: 50 mM, 10 μl on disk (500×, 125×, ~62.5× the MIC for EPM30, EPM35, EPM43)
[6] = system: S.Tm wild-type SL1344, MAR1 and S10801; assay: microbe, parasite or virus in culture; format: cell-based, Salmonella enterica serovar Typhimurium; details: for sensitivity of MDR S.Tm to tetracycline: MAR1 and S10801
Experimental: Increased expression or function of efflux pumps often contributes to clinical multidrug resistance. Therefore, whether the EPMs re-sensitize two multidrug resistant strains of S.Tm to tetracycline was tested. Tetracycline is an antibiotic exported by AcrAB. The MAR1 strain is derived from wild-type SL1344 was selected by exposure to tetracycline, and has increased expression of the AcrAB efflux pump. S10801 is an MDR strain isolated from the mesenteric lymph node of a septic calf and is resistant to tetracycline, ampicillin, chloramphenicol, nalidixic acid, and triple sulfa. The basis of multi-drug resistance in this strain is unknown.
Overnight Salmonella cultures were washed 3 times in PBS and diluted to an OD of 0.01 in Mueller Hinton Broth in 96-well flat bottom plates. Compound was added using a pin tool (CyBio) or manually, yielding a final concentration of no more than 1% DMSO. Plates were grown at 37° C. shaking and OD600 was monitored using a BioTek Eon incubator shaker microplate absorbance reader. For experiments in defined media, bacteria were grown in M9 minimal media supplemented with 100 mM Tris pH 7.4, 0.35% glycerol, 0.002% histidine, 10 mM MgCl2, and 0.1% casamino acids. Where indicated, media was supplemented with 5 μg/ml polymyxin B or 0.2 mM H2O2. For experiments with LL-37, bacteria were grown in M9 minimal media supplemented with 0.4% dextrose, 0.004% histidine, 1 mM MgSO4, and 5 μg/ml LL-37. For checkerboard assays, MIC was defined as the concentration at which no growth was visually observed.

| SMILES | Nile Red export [1] | glucose-activated efflux of Nile Red [2] | Nile Red efflux after washout of compound [2] | Nile Red fluorescence in the absence of glucose (basal loss) [2] | Nile Red export [3] | Hoechst assay EC50 relative to PAβN [4] | Hoechst accumulation / fluorescence ([4]; wild-type S.Tm, 60 minutes) | halo in swimming assay [5] | decrease of the tetracycline MIC ([6]; 50 μM (⅛ MIC), both strains MAR1 and S10801) | sensitivity of MDR S.Tm to tetracycline [6] | Hoechst accumulation / fluorescence [4] |
| --- | --- | --- | --- | --- | --- | --- | --- | --- | --- | --- | --- |
| OC(COc1ccc(Cl)c(Cl)c1)CN1CCC(Nc2nccc(C(F)(F)F)n2)CC1 (stereo not drawn) [EPM35] | significantly reduced Nile Red export | fully inhibited efflux | remained unable to efflux | inhibit basal loss of Nile Red | significantly reduced Nile Red export | lower than that of PAβN | increased S.Tm accumulation of Hoechst in a dose-dependent manner; also recorded: fluorescence comparable to that of PAβN | formed a small halo | 4 fold | increased sensitivity to tetracycline | – |
| Cc1ccc(Sc2cccc3nc(N)nc(N)c23)cc1 [EPM43] | significantly reduced Nile Red export | only partially inhibited efflux | partially effluxed Nile Red after compound washout; also recorded: partially restored Nile Red export | inhibit basal loss of Nile Red | significantly reduced Nile Red export | – | – | formed no halo | – | not | increased S.Tm accumulation of Hoechst in a dose-dependent manner; also recorded: fluorescence comparable to that of PAβN |
